Reference: US20030073681A1, “2-substituted piperidines that are ligands for monoamine receptors and transporters” (priority 2001, published 2003)

Legend:
Human 5-HT Receptor [1] = target: T1, Human 5-HT Receptor (Homo sapiens, UniProt P31645); assay: Functional activity for serotonin uptake inhibition in human HEK-293 cell lines; assay type: cell-based; parameters: expressed in transfected cells; host or cells: HEK-293; conditions: read-out: Functional Assays (EC50, nM) Human 5-HT Receptor
Human DA Receptor [2] = target: T2, Human DA Receptor (Homo sapiens, UniProt Q01959); assay: Dopamine functional activity in hDAT cell line; assay type: cell-based; parameters: expressed in transfected cells; conditions: read-out: Functional Assays (EC50, nM) Human DA Receptor
Human NE Receptor [3] = target: T3, Human NE Receptor (Homo sapiens, UniProt P23975); assay: Functional activity for norephinephrine uptake inhibition in MDCK cell lines; assay type: cell-based; conditions: read-out: Functional Assays (EC50, nM) Human NE Receptor
Human NE Receptor [4] = target: T3, Human NE Receptor; assay: Displacement of norephinephrine ligands in vitro (uptake profile); assay type: binding
Human 5-HT Receptor [5] = target: T1, Human 5-HT Receptor; assay: Displacement of serotonin ligands in vitro (uptake profile); assay type: binding
Human DA Receptor [6] = target: T2, Human DA Receptor; assay: Displacement of dopamine ligands in vitro (uptake profile)

T1 sequence (P31645 whole entry): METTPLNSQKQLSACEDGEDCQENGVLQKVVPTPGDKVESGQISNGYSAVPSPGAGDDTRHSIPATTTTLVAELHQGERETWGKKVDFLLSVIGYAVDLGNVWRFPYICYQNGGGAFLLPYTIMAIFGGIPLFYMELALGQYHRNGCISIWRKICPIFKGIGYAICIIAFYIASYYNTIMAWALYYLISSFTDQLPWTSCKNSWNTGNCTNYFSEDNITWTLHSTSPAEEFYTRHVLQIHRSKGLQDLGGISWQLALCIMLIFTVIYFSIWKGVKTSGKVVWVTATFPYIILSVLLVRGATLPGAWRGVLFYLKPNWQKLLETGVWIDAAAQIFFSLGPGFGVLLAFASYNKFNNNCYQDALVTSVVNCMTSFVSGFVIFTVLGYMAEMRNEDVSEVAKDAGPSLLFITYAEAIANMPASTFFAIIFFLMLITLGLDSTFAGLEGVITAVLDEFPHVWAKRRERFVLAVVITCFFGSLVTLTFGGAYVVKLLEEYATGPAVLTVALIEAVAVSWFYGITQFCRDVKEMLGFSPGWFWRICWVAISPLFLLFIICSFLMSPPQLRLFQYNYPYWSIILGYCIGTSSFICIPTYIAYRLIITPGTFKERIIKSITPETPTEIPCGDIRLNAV
T2 sequence (Q01959 whole entry): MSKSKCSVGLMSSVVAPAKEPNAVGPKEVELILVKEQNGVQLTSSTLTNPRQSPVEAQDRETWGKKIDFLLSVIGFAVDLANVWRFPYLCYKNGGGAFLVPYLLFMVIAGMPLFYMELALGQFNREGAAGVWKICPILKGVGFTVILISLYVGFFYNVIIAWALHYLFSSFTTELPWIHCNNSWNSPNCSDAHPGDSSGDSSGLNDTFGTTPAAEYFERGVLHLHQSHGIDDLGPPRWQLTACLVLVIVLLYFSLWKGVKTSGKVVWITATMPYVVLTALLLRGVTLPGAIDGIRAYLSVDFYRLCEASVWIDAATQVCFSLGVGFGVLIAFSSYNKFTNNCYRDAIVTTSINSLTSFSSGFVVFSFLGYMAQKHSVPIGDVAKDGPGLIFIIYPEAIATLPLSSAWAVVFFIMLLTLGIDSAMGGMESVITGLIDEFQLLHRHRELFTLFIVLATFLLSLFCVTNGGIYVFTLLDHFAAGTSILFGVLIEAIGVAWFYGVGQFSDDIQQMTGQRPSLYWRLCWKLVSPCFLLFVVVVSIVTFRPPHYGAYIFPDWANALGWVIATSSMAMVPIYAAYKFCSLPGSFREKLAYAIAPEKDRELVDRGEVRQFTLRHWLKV
T3 sequence (P23975 whole entry): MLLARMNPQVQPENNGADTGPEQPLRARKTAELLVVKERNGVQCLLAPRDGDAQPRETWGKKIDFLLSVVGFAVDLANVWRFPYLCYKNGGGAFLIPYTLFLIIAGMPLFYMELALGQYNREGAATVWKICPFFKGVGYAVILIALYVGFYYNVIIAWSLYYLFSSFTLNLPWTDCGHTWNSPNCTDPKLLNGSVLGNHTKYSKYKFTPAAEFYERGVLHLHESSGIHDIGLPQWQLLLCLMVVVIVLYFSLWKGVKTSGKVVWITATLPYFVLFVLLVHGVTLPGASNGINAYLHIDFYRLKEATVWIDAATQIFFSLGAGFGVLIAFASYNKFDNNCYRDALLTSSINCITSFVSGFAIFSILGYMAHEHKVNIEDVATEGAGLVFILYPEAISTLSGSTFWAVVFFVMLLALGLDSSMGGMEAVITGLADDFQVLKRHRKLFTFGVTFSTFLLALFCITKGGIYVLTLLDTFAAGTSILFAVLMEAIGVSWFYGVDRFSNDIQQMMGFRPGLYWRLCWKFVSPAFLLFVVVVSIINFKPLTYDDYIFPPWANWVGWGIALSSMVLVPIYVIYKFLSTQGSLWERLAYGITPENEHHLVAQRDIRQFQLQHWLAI

| SMILES | EC50 (Human 5-HT Receptor [1]) [nM] | EC50 (Human DA Receptor [2]) [nM] | EC50 (Human NE Receptor [3]) [nM] | IC50 (Human NE Receptor [4]) [nM] | IC50 (Human 5-HT Receptor [5]) [nM] | IC50 (Human DA Receptor [6]) [nM] |
| --- | --- | --- | --- | --- | --- | --- |
| CN1CCN(CC(O)c2ccc(Cl)cc2)C(CCc2ccc(C(F)(F)F)cc2)C1 (stereo not drawn) [Compound 30, 1-(4-Chloro-phenyl)-2-{4-methyl-2-[2-(4-trifluoromethyl-phenyl)-ethyl]-piperazin-1-yl}-ethanol] | < 1000 | > 1000 | > 1000 | – | – | – |
| OC(CN1CCCCC1CCOc1ccc(C(F)(F)F)cc1)C1(c2ccc(Cl)c(Cl)c2)CCC1 (stereo not drawn) [Compound 18, 1-[1-(3,4-Dichloro-phenyl)-cyclobutyl]-2-{2-[2-(4-trifluoromethyl-phenoxy)-ethyl]-piperidin-1-yl}-ethanol] | – | – | – | < 100 | < 1000 | < 10 |
| FC(F)(F)c1ccc(OCCC2CCCCN2CC2(c3ccc(Cl)cc3)CCC2)cc1 (stereo not drawn) [Compound 7, 1-[1-(4-Chloro-phenyl)-cyclobutylmethyl]-2-[2-(4-trifluoromethyl-phenoxy)-ethyl]-piperidine] | – | – | – | < 1000 | > 1000 | < 100 |
| O[C@H](CN1CCCCC1CCOc1ccc(C(F)(F)F)cc1)C1(c2ccc(Cl)cc2)CCC1 (stereo partly drawn) [Compound 9, 1-[1-(4-Chloro-phenyl)-cyclobutyl]-2-{2-[2-(4-trifluoromethyl-phenoxy)-ethyl]-piperidin-1-yl}-S-ethanol] | < 100 | < 100 | < 10 | < 100 | < 1000 | < 10 |
| CC(CN1CCCCC1CCOc1ccc(C(F)(F)F)cc1)C(O)c1ccc(Cl)cc1 (stereo not drawn) [Compound 14, 1-(4-Chloro-phenyl)-2-methyl-3-{2-[2-(4-trifluoromethyl-phenoxy)-ethyl]-piperidin-1-yl}-propan-1-ol] | – | – | – | < 1000 | < 1000 | < 100 |
| CC(CN1CCCCC1CCOc1ccc(C(F)(F)F)cc1)C(=O)c1ccc(Cl)cc1 (stereo not drawn) [Compound 13, 1-(4-Chloro-phenyl)-2-methyl-3-{2-[2-(4-trifluoromethyl-phenoxy)-ethyl]-piperidin-1-yl}-propan-1-one] | – | – | – | > 1000 | > 1000 | > 1000 |
| O=C(CCCN1CCCCC1CCOc1ccc(C(F)(F)F)cc1)c1ccc(F)cc1 (stereo not drawn) [Compound 32, 1-(4-Fluoro-phenyl)-4-{2-[2-(4-trifluoromethyl-phenoxy)-ethyl]-piperidin-1-yl}-butan-1-one] | < 1000 | < 1000 | > 1000 | – | – | – |
